Read-outs that look alike come from different tables or passages of the source.
What was measured:
[1] = assay type: in vitro ADME, human; details: for HLM (%) relative abundance (area ratio): incubation of 7a in human liver microsomes with NADPH
[2] = assay type: in vitro ADME; details: incubation of 7a in rat liver microsomes with NADPH
Protocol: Liver microsomes were used to investigate the metabolism clearance of 7a. In addition, 5 µL of rat liver microsome (20 mg/mL), 2 µL of 7a or onvansertib (100 µM), and 173 µL of PBS buffer (0.1 M, pH 7.4) were added to 1.5 mL Eppendorf tubes. After pre-incubation for 10 min at 37 °C, the reaction was initiated by adding an NADPH-generating system (20 µL) into the microsomal suspension. A system without NADPH was set as a negative control. After incubations for 10 min, 30 min, or 60 min, 400 µL of ice acetonitrile was added to quench the reaction. The supernatants were injected into Q Exactive ™ combined quadrupole Orbitrap mass spectrometer (Thermo Scientific, Waltham, MA, USA) for metabolite profiling and identification. The concentration of the compound to be measured at 0 min was defined as 100%, and the concentration at other times was converted into a residual percentage.

PLK1 kinase = target: T1, PLK1 kinase (Homo sapiens, UniProt P53350); experiment: PLK1 kinase inhibition activity; assay type: biochemical
T1 construct: purchased CarnaBio 05–157
Protocol: The compounds were diluted at a 1:3 ratio on a 384-well plate with the highest concentration of 1 μM, and a total of 10 concentration points were tested. The mixture of PLK1 kinase and peptide substrate (5 μL) was added to each well. […] The results were tested by EnVision and analyzed using XLFIT5 software.

NCI-H2030 cells = experiment: Cell proliferation inhibition, NCI-H2030 (ATPlite); assay type: cell-based; details: Homo sapiens, 72 h incubation, read-out: NCI-H2030 IC50 (cell viability)
Protocol: (§1) HCT-116 or NCI-H2030 cells were seeded in 96-well plates at a density of 720/well and cultured overnight in a 5% CO2 incubator at 37 ± 1 °C. The compounds were diluted and added at a ratio of 1:3. After incubation for 72 h, ATPlite 1step Luminescence was added and incubated in the dark for 3 min, then was vortexed at 500 rpm for 2 min, and the luminous intensity was detected by the microplate reader and the cell inhibition was calculated as follows:Inhibition (%) = 100 − (Lum compound − Lum medium)/(Lum control − Lum medium) × 100%

HCT-116 cells = experiment: Cell proliferation inhibition, HCT-116 (ATPlite); assay type: cell-based; details: Homo sapiens, 72 h incubation, read-out: HCT-116 IC50 (cell viability)
Protocol: as §1

[3] = Stability of 7a in rat plasma (QC samples, UHPLC-MS/MS); assay type: in vitro ADME
Protocol: QC samples were stored under different conditions, such as room temperature for 4 h, frozen-thawed for 3 cycles, frozen at −20 °C for 7 days, or stored in an auto-sampler for 24 h. The sample concentrations were calculated by the following calibration curve. The RE (%) and RSD (%) should be less than ±15%.

[4] = Pharmacokinetics in rats after intravenous administration; assay type: in vivo; details: Sprague-Dawley, rat, plasma, i.v. 1 mg/kg
Protocol: The pharmacokinetic characteristics of 7a were then evaluated successfully with the validated UHPLC-MS/MS method. […] The AUC0–24h was about 517 and 3192 h × nmol/L at the doses of 5 and 30 mg/kg, respectively. The tmax was approximately 2 h, and t1/2 was 5 h. In the dose range of 5–30 mg/kg, the pharmacokinetics of 7a were almost linear. The mean plasma concentration-time curve of 7a after a single intravenous administration (1 mg/kg) and the major pharmacokinetic parameters can be found in Figure S14 and Table S1.
(§2) The main pharmacokinetic parameters were calculated using Phoenix WinNonlin 7.0 via a non-compartmental model (Pharsight, Mountain View, CA). […] Data were presented as mean ± SD.
Figure S12. 19F NMR (400 MHz, DMSO) of compound 7a: δ -56.89 ppm.
Figure S13. Mass spectrum of compound 7a (m/z 500.2).
Figure S14. Mean concentration-time curves of compound 7a after intravenous administration in rats (1 mg/kg).
Data were presented as mean ± SD, n=3.
Table S1. Main pharmacokinetics parameters of compound 7a after intravenous administration (mean ± SD, n=3).
T (h) C0 AUC0-t V (L/kg) Cl(L/h/kg) […]

[5] = Pharmacokinetic study in rats after oral administration; assay type: in vivo, Sprague-Dawley rats; details: for Cmax / Tmax / half-life / bioavailability / AUC(0-t): Sprague-Dawley, rat, plasma; for AUC(0-t): read-out: AUC0–24h
Protocol: Sprague-Dawley rats (8 weeks old, 180–220 g) were provided by Pengyue Laboratory Animal Technology Co., Ltd (Jinan, Shandong, China). All rats were fed adaptively for 1 week (20 °C–24 °C, 50%–70% relative humidity, 12/12 h light/dark cycle). A standard diet and boiled water were provided. The rats fasted for over 12h with free access to water before the study. Furthermore, 7a was dissolved DMSO (5%) and then diluted with saline. The rats were given 7a by gavage at 5 mg/kg and 30 mg/kg. In addition, 200 μL of blood was collected into a 1.5 mL tube added with heparin at 5 min, 15 min, 30 min, 1 h, 2 h, 4 h, 6 h, 8 h, 10 h, and 24 h after administration. Plasma was acquired by centrifugation (8000 rpm, 5 min) and all samples were immediately stored at −20 °C immediately. The guidelines of the Animal Ethics Committee of Luye Pharma Group Ltd. were strictly enforced during the animal experiments to ensure animal welfare.
as §2

[6] = autosampler 4 °C for 24 h, nominal 3 nM
[7] = autosampler 4 °C for 24 h, nominal 300 nM
[8] = autosampler 4 °C for 24 h, nominal 750 nM
[9] = rat plasma, freeze −20 °C for 7 days, nominal 3 nM
[10] = rat plasma, freeze −20 °C for 7 days, nominal 300 nM
[11] = rat plasma, freeze −20 °C for 7 days, nominal 750 nM
[12] = rat plasma, freeze-thaw for 3 cycles, nominal 3 nM
[13] = rat plasma, freeze-thaw for 3 cycles, nominal 300 nM
[14] = rat plasma, freeze-thaw for 3 cycles, nominal 750 nM
[15] = rat plasma, room temperature for 4 h, nominal 3 nM
[16] = rat plasma, room temperature for 4 h, nominal 300 nM
[17] = rat plasma, room temperature for 4 h, nominal 750 nM
[18] = both sexes, oral 5 mg/kg, mean of male and female rats
[19] = both sexes, oral 30 mg/kg, mean of male and female rats
[20] = both sexes, oral, rats, doses 5–30 mg/kg, overall statement

T1 sequence (P53350 whole entry): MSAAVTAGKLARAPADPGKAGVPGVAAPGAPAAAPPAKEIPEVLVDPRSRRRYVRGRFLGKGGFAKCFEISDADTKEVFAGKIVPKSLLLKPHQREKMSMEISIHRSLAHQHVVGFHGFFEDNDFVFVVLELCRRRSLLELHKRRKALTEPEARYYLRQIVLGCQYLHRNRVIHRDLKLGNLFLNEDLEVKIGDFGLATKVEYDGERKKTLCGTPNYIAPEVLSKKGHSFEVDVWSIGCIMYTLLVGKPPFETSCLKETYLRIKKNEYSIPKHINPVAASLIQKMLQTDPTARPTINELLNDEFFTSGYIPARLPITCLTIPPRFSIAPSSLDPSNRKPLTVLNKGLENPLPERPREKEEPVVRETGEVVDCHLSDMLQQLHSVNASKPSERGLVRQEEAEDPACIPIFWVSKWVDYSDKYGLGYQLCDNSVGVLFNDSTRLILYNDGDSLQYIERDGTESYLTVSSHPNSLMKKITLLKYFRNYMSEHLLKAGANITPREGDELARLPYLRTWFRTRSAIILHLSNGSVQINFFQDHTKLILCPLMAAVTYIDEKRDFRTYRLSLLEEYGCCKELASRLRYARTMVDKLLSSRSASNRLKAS

Cn1c(-c2ccnc(Nc3cc(N4CCNCC4)ccc3OC(F)(F)F)n2)cc2c(=O)[nH]ccc21 [M2]
HLM (%) relative abundance (area ratio) [1]: 34.76% | RLM (%) relative abundance (area ratio) [2]: 6.53%

CN1CCN(c2ccc(OC(F)(F)F)c(Nc3nccc(-c4cc5c(n4C)CCNC5=O)n3)c2)CC1 [compound 25, reference compound]
IC50 (PLK1 kinase; read-out: PLK1 inhibition IC50): 4.07 nM | IC50 (NCI-H2030 cells): 74.7 nM | IC50 (HCT-116 cells): 62.8 nM

CN1CCN(c2ccc(OC(F)(F)F)c(Nc3nccc(-c4cc5c(=O)[nH]ccc5n4C)n3)c2)CC1 [compound 7a, 1-methyl-2-(2-((5-(4-methylpiperazin-1-yl)-2-(trifluoromethoxy)phenyl)amino)pyrimidin-4-yl)-1,5-dihydro-4H-pyrrolo[3,2-c] pyridin-4-one]
Measured Concentrations [3, 6]: 3.05 ± 0.10 nM | RE (stability) [3, 6]: 1.78% | Measured Concentrations [3, 7]: 280 ± 11.9 nM | RE (stability) [3, 7]: −6.67% | Measured Concentrations [3, 8]: 701 ± 46.5 nM | RE (stability) [3, 8]: −6.58% | Measured Concentrations [3, 9]: 2.55 ± 0.13 nM | RE (stability) [3, 9]: −14.9% | Measured Concentrations [3, 10]: 272 ± 9.67 nM | RE (stability) [3, 10]: −9.33% | Measured Concentrations [3, 11]: 685 ± 34.7 nM | RE (stability) [3, 11]: −8.71% | Measured Concentrations [3, 12]: 2.73 ± 0.21 nM | RE (stability) [3, 12]: −9.17% | Measured Concentrations [3, 13]: 260 ± 10.8 nM | RE (stability) [3, 13]: −13.4% | Measured Concentrations [3, 14]: 649 ± 24.2 nM | RE (stability) [3, 14]: −13.5% | Measured Concentrations [3, 15]: 2.59 ± 0.17 nM | RE (stability) [3, 15]: −13.7% | Measured Concentrations [3, 16]: 261 ± 4.94 nM | RE (stability) [3, 16]: −13% | Measured Concentrations [3, 17]: 649 ± 17.9 nM | RE (stability) [3, 17]: −13.4% | stability of the parent in HLM ([1]; human liver microsomes): stable | HLM (%) relative abundance (area ratio) [1]: 43.73% | IC50 (PLK1 kinase): 0.89 nM | PLK-1 activity and cytotoxicity, times higher than compound 25 (PLK1 kinase; relative to compound 25): more than 4 times | IC50 (NCI-H2030 cells): 38.5 nM | AUC(0-t) [4]: 0.472 ± 0.032 µM·h | C0 [4]: 481 ± 42 nM | clearance [4]: 70 mL/min/kg | half-life [4]: 2.4 ± 0.6 h | Vd ([4]; read-out: Vss): 8.5 ± 1.3 L/kg | Cmax ([5]; oral 5 mg/kg, female rats): 102 ± 25 nM | Tmax ([5]; oral 5 mg/kg, female rats): 0.8 ± 1 h | half-life ([5]; oral 5 mg/kg, female rats): 4.6 ± 1.4 h | bioavailability ([5]; oral 5 mg/kg, female rats, read-out: F): 19.9% | Cmax ([5]; oral 5 mg/kg, male rats): 87 ± 45 nM | Tmax ([5]; oral 5 mg/kg, male rats): 3 ± 2.6 h | half-life ([5]; oral 5 mg/kg, male rats): 4.4 ± 0.9 h | bioavailability ([5]; oral 5 mg/kg, male rats, read-out: F): 23.9% | Cmax ([5]; oral 30 mg/kg, female rats): 428 ± 90 nM | Tmax ([5]; oral 30 mg/kg, female rats): 2.3 ± 1.5 h | half-life ([5]; oral 30 mg/kg, female rats): 6.1 ± 0.9 h | bioavailability ([5]; oral 30 mg/kg, female rats, read-out: F): 22.3% | Cmax ([5]; oral 30 mg/kg, male rats): 435 ± 81 nM | Tmax ([5]; oral 30 mg/kg, male rats): 2 ± 1.9 h | half-life ([5]; oral 30 mg/kg, male rats): 3.7 ± 1.3 h | bioavailability ([5]; oral 30 mg/kg, male rats, read-out: F): 22.7% | AUC(0-t) ([5]; both sexes, po, 5 mg/kg, oral 5 mg/kg, mean of male and female rats): ~0.517 µM·h | AUC(0-t) ([5]; both sexes, po, 30 mg/kg, oral 30 mg/kg, mean of male and female rats): ~3.19 µM·h | bioavailability ([5]; both sexes, po, rats, overall statement, read-out: oral bioavailability (F)): ~22% | Cmax [5, 18]: 95 ± 33 nM | Tmax [5, 18]: 1.9 ± 2.1 h | half-life [5, 18]: 4.5 ± 1.1 h | bioavailability ([5]; both sexes, oral 5 mg/kg, mean of male and female rats, read-out: F): 21.9% | Cmax [5, 19]: 432 ± 77 nM | Tmax [5, 19]: 2.2 ± 1.6 h | half-life [5, 19]: 5.1 ± 1.6 h | bioavailability ([5]; both sexes, oral 30 mg/kg, mean of male and female rats, read-out: F): 22.5% | Tmax [5, 20]: ~2 h | half-life [5, 20]: 5 h | AUC(0-t) ([5]; female, po, 5 mg/kg, oral 5 mg/kg, female rats): 0.469 ± 0.064 µM·h | AUC(0-t) ([5]; female, po, 30 mg/kg, oral 30 mg/kg, female rats): 3.16 ± 1.02 µM·h | AUC(0-t) ([5]; male, po, 5 mg/kg, oral 5 mg/kg, male rats): 0.565 ± 0.132 µM·h | AUC(0-t) ([5]; male, po, 30 mg/kg, oral 30 mg/kg, male rats): 3.22 ± 1.04 µM·h | AUC0–24h ([5]; oral 30 mg/kg, mean of male and female rats, 30 mg/kg): 3.192 ± 0.922 µM·h | IC50 (HCT-116 cells): 30.6 nM | RLM (%) relative abundance (area ratio) [2]: 5.34%

Reference: publication PMC10053003, “Study on Pharmacokinetics and Metabolic Profiles of Novel Potential PLK-1 Inhibitors by UHPLC-MS/MS Combined with UHPLC-Q-Orbitrap/HRMS” (Molecules, 2023)
